Measured values reported in patent US11234977B2, “Fused tricyclic pyrazolo-dihydropyrazinyl-pyridone compounds as antivirals” (priority 2017, dated 2022).

test system: HBsAg secretion, HepG2-Clone42 cells (Tet-inducible HBV-expressing cell line, HBV ayw strain); assay: HBsAg assay (HBsAg ELISA of secreted HBV sAg in HepG2-Clone42 cells); type: cell-based; details: Hepatitis B virus, read-out: HBsAg EC50
Description: HepG2-Clone42, a Tet-inducible HBV-expressing cell line with a stably integrated 1.3mer copy of the HBV ayw strain, was generated based on the Tet-inducible HepAD38 cell line with slight modifications. Ladner S K, et al., Antimicrobial Agents and Chemotherapy. 41(8):1715-1720 (1997). HepG2-Clone42 cells were cultured in DMEM/F-12+ Glutamax™ (Life Technologies, Carlsbad, Calif., USA), supplemented with 10% fetal bovine serum (Life Technologies), G-418 (Corning, Manassas, Va., USA) at a final concentration of 0.5 mg/mL, and 5 μg/mL Doxycycline (Sigma, St. Louis, Mo., USA) and maintained in 5% CO2 at 37° C.
HepG2-Clone42 cells were seeded into black clear-bottom 96-well plates at a concentration of 6.0×10^4 cells/well. 24 hours post-seeding, the cells were treated with 200 μl/well of media containing five-fold serial dilutions of compounds in DMSO. DMSO alone was used as the no drug control. The final DMSO concentration in all wells was 0.5%.
The HBsAg ELISA kit (Alpha Diagnostic International, San Antonio, Tex., USE, Catalog #4110) was used to determine the level (semi-quantitative) of secreted HBV sAg. The HBSAg ELISA assay was performed following the manufacturer's protocol as described.
Step 1. Pipet 100 μL each of compound or DMSO treated samples into HBsAg ELISA plates. Seal plates and incubate at room temp for 60 minutes.
Step 2. Aspirate samples and wash three times with Wash Buffer. Dispense 100 μL of antibody-HRP conjugate to each well. Incubate at room temp for 30 minutes.
Step 3. Aspirate samples and wash three times with Wash Buffer. Add 100 μL of TMB Substrate to all wells and incubate 15 minutes at room temp.
Step 4. Dispense 100 μL of Stop Solution to each well. Measure absorbance of ELISA plate at 450 nm.
Dose-response curves were generated and the EC50 value was defined as the compound concentration at which HBsAg secretion was reduced 50% compared to the DMSO control.
EC50 values were determined as follows:
Determine the percent of HBsAg secretion inhibition. Calculate the percent inhibition on of HBsAg secretion inhibition using the following equation: (XC-MB)/(MDMB) • where XC is the absorbance signal from compound-treated well; MB is average absorbance signal (background signal) for column 12 (no cells+HBsAg ELISA sample buffer) and MD is average absorbance signal from DMSO-treated wells. Then calculate EC50 values by non-linear regression using a four parameter curve logistic equation. The curve fit model employed is XLFit Dose Response One Site Model 204: y=(A+((B−A)/(1+(10^((C−x)*D))))) where A is the minimum y value, B is the maximum y value, C is the log EC50 value, and D is the slope factor. +++means<1 nm; ++means≥1 nm and ≤10 nm and +means>10 nm.

Row | SMILES | EC50 [µM]
1 | CC(C)(C)[C@@H]1Cn2nc(-c3ccccc3)c(Cl)c2-c2cc(=O)c(C(=O)O)cn21 [Compound 3.1, (R)-6-(tert-butyl)-1-chloro-10-oxo-2-phenyl-5,6-dihydro-10H-pyrazolo[1,5-a]pyrido[2,1-c]pyrazine-9-carboxylic acid] | < 0.001
2 | COCCCOc1nn2c(c1Cl)-c1cc(=O)c(C(=O)O)cn1[C@H](C(C)(C)C)C2 [Compound 1.1, (R)-6-(tert-butyl)-1-chloro-2-(3-methoxypropoxy)-10-oxo-6,10-dihydro-5H-pyrazolo[1,5-a]pyrido[2,1-c]pyrazine-9-carboxylic acid] | < 0.001
3 | CC(C)[C@@H]1Cn2nc(-c3ccccc3)c(Cl)c2-c2cc(=O)c(C(=O)O)cn21 [Compound 3.4, (R)-1-chloro-6-isopropyl-10-oxo-2-phenyl-6,10-dihydro-5H-pyrazolo[1,5-a]pyrido[2,1-c]pyrazine-9-carboxylic acid] | > 0.01
4 | COc1ccccc1-c1nn2c(c1Cl)-c1cc(=O)c(C(=O)O)cn1[C@H](C(C)(C)C)C2 [Compound 3.2, (R)-6-(tert-butyl)-1-chloro-2-(2-methoxyphenyl)-10-oxo-5,6-dihydro-10H-pyrazolo[1,5-a]pyrido[2,1-c]pyrazine-9-carboxylic acid] | > 0.01
5 | COCCCOc1cc2n(n1)C[C@@H](C(C)(C)C)n1cc(C(=O)O)c(=O)cc1-2 [Compound 1.2, (R)-6-(tert-butyl)-2-(3-methoxypropoxy)-10-oxo-6,10-dihydro-5H-pyrazolo[1,5-a]pyrido[2,1-c]pyrazine-9-carboxylic acid] | > 0.01
6 | CC(C)[C@@H]1Cn2nc(-c3ccccc3)cc2-c2cc(=O)c(C(=O)O)cn21 [Compound 3.3, (R)-6-isopropyl-10-oxo-2-phenyl-5,6-dihydro-10H-pyrazolo[1,5-a]pyrido[2,1-c]pyrazine-9-carboxylic acid] | > 0.01
7 | COCCCOc1nn2c(c1Br)-c1cc(=O)c(C(=O)O)cn1[C@H](C(C)(C)C)C2 [Compound 1.3, (R)-1-bromo-6-(tert-butyl)-2-(3-methoxypropoxy)-10-oxo-6,10-dihydro-5H-pyrazolo[1,5-a]pyrido[2,1-c]pyrazine-9-carboxylic acid] | 0.001 to 0.01
8 | CC(C)c1cc2n(n1)CC(C(C)(C)C)n1cc(C(=O)O)c(=O)cc1-2 (centres unmarked) [Compound 2.1, 6-(tert-butyl)-2-isopropyl-10-oxo-6,10-dihydro-5H-pyrazolo[1,5-a]pyrido[2,1-c]pyrazine-9-carboxylic acid] | > 0.01
